In US20230000936A1, “A[…] ITCHING […] C[…]” (Demetrix, Inc., priority 2021, published 2023):
Entries after “also recorded” stand apart in the source; their conditions may differ.

Key:
Assay type in all cases: cell-based
CHRM2 [1] = molecular target: T1, CHRM2 (Homo sapiens, UniProt P08172); experiment: GPCR reactivity screen, PathHunter β-Arrestin, agonist assay CHRM2; parameters: concentration or dose not given beside the values; details: agonist mode; control acetylcholine
T1 sequence (P08172 1-466): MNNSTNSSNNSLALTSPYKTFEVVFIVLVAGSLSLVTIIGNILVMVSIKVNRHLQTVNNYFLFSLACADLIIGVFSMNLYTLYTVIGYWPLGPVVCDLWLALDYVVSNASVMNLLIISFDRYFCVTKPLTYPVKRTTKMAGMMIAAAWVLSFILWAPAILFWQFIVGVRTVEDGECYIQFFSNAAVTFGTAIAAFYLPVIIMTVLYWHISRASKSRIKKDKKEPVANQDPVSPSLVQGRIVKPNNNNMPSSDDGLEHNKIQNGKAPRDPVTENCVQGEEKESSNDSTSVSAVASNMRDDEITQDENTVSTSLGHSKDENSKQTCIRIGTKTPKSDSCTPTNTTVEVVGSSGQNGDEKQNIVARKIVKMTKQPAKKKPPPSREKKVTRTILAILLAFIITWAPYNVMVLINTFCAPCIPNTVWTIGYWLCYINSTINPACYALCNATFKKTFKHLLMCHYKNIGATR
Method: (§1) To evaluate the role specific cannabinoid compounds play in the neurological signaling pathway for itching, a GPCR reactivity assay was performed to determine the reactivity of 19 cannabinoid compounds to each of CHRM2, EDG3, and MRGPRX2. The evaluated cannabinoid compounds were: CBN, THCV, CBDVA, CBG, CBL, CBC, CBDV, CBDA, CBD, CBGA, (+)-CBD, CBG-C4, CBD-C1, CBD-C2, CBGV, CBGA-C4, CBGVA, CBCA, and CBLA. Acetylcholine was used as the control for CHRM2, sphingosine-1-phosphate was used as the control for EDG3; and cortistatin 14 was used as the control for MRGPRX2.
(§2) A total of six assays were run. Specifically, agonist and antagonist assays were run for each of CHRM2, EDG3, and MRGPRX2. In each of the three agonist assays, PathHunter® cell lines were removed from a freezer stock and seeded at a volume of 20 μL into white walled, 384-well microplates and incubated at 37° C. Each cell was incubated with a sample to induce a response and then diluted to generate a 5× sample in assay buffer. 5 μL of the 5× sample was then added to cells and incubated at 37° C. for 90 or 180 minutes. The final assay concentration was 1%. The assay signal was generated through addition of 12.5 μL or 15 μL (50% V/V) of a detection reagent cocktail followed by a one hour incubation time at room temperature. Microplates were read following signal generation with a PerkinElmer Envision™ (PerkinElmer Inc., Waltham, Mass.) for chemiluminescent signal detection. Reactivity was analyzed using the CBIS data analysis suite (ChemInnovation, CA) where RLU refers to the raw measured values. The percent activity was then calculated using the formula: % Activity=100%*(mean RLU of test sample−mean RLU of control)/(mean max control ligand−mean RLU of vehicle control).
(§3) As used herein, strong activity against a receptor is considered a percent activity of about 42% or higher. Higher results for antagonism against CHRM2, EDGE, and MRGPRX2 are considered better. It is further considered better when a cannabinoid inhibits more than one of the receptors.

MRGPRX2 [2] = molecular target: T2, MRGPRX2 (Homo sapiens, UniProt Q96LB1); experiment: GPCR reactivity screen, PathHunter β-Arrestin, agonist assay MRGPRX2; details: agonist mode; control cortistatin 14
T2 sequence (Q96LB1 1-330): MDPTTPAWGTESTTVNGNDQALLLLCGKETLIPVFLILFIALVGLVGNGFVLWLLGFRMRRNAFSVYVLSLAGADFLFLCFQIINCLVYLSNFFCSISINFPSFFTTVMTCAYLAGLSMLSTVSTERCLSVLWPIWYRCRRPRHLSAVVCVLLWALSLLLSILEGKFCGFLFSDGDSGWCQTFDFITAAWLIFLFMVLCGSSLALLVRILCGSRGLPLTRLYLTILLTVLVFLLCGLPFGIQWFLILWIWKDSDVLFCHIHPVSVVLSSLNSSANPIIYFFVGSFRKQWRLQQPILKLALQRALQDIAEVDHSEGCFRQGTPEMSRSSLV
Method: as §1, §2, §3

CHRM2 [3] = molecular target: T1, CHRM2; experiment: IC50 antagonist activity screen, PathHunter β-Arrestin, CHRM2; details: for maximum inhibition (antagonism) CHRM2: maximum of IC50 curve; for antagonism of CHRM2 (in words): IC50 data
Method: (§4) In each of the antagonist assays, PathHunter® cell lines were removed from a freezer stock and seeded at a volume of 20 μL into white walled, 384-well microplates and incubated at 37° C. Each cell was pre-incubated with an antagonist followed by an agonist challenge at the EC80 concentration. Cells were then diluted to generate a 5× sample in assay buffer. 5 μL of the 5× sample was then added to cells and incubated at 37° C. for 30 minutes. Finally, 5 μL of 6×EC80 agonist in assay buffer were added to the cells and incubated at 37° C. for 90 minutes or 180 minutes. The assay signal was generated through addition of 12.5 μL or 15 μL (50% V/V) of a detection reagent cocktail followed by a one hour incubation time at room temperature. Microplates were read following signal generation with a PerkinElmer Envision™ (PerkinElmer Inc., Waltham, Mass.) for chemiluminescent signal detection. Reactivity was analyzed using the CBIS data analysis suite (ChemInnovation, CA) where RLU refers to the raw measured values. The percent inhibition was calculated using the formula: % Inhibition=100%*(1−mean RLU of test sample−mean RLU of control)/(mean RLU of EC80 control−mean RLU of vehicle control).
as §3, with “IC50 curves were measured using the same GPCR assay, PathHunter® β-Arrestin from Eurofins DiscoverX Products (Fremont, Calif.), as the GPCR reactivity screen. As” for “As”, “maximum” for “percent”

EDG3 [4] = molecular target: T3, EDG3 (Homo sapiens, UniProt Q99500); experiment: GPCR reactivity screen, PathHunter β-Arrestin, antagonist assay EDG3; details: for antagonist activity against EDG3 (in words): GPCR reactivity screen; for EDG3 (Antagonist) percent inhibition: antagonist mode, agonist challenge at EC80
Method: as §1, §4, §3

EDG3 [5] = molecular target: T3, EDG3; experiment: IC50 antagonist activity screen, PathHunter β-Arrestin, EDG3; details: for maximum inhibition (antagonism) EDG3: maximum of IC50 curve; for antagonism of EDG3 (in words): IC50 data
Method: as §4
as §3, with “IC50 curves were measured using the same GPCR assay, PathHunter® β-Arrestin from Eurofins DiscoverX Products (Fremont, Calif.), as the GPCR reactivity screen. As” for “As”, “maximum” for “percent”

CHRM2 [6] = molecular target: T1, CHRM2; experiment: GPCR reactivity screen, PathHunter β-Arrestin, antagonist assay CHRM2; details: for antagonist activity against CHRM2 (in words): GPCR reactivity screen; for CHRM2 (Antagonist) percent inhibition: antagonist mode, agonist challenge at EC80
Method: as §1, §4, §3

MRGPRX2 [7] = molecular target: T2, MRGPRX2; experiment: IC50 antagonist activity screen, PathHunter β-Arrestin, MRGPRX2; details: for maximum inhibition (antagonism) MRGPRX2: maximum of IC50 curve; for antagonism of MRGPRX2 (in words): IC50 data
Method: as §4
as §3, with “IC50 curves were measured using the same GPCR assay, PathHunter® β-Arrestin from Eurofins DiscoverX Products (Fremont, Calif.), as the GPCR reactivity screen. As” for “As”, “maximum” for “percent”

MRGPRX2 [8] = molecular target: T2, MRGPRX2; experiment: GPCR reactivity screen, PathHunter β-Arrestin, antagonist assay MRGPRX2; details: for antagonist activity against MRGPRX2 (in words): GPCR reactivity screen; for MRGPRX2 (Antagonist) percent inhibition: antagonist mode, agonist challenge at EC80
Method: as §1, §4, §3

EDG3 [9] = molecular target: T3, EDG3; experiment: GPCR reactivity screen, PathHunter β-Arrestin, agonist assay EDG3; parameters: concentration or dose not given beside the values; details: agonist mode; control sphingosine-1-phosphate
Method: as §1, §2, §3

T3 sequence (Q99500 whole entry): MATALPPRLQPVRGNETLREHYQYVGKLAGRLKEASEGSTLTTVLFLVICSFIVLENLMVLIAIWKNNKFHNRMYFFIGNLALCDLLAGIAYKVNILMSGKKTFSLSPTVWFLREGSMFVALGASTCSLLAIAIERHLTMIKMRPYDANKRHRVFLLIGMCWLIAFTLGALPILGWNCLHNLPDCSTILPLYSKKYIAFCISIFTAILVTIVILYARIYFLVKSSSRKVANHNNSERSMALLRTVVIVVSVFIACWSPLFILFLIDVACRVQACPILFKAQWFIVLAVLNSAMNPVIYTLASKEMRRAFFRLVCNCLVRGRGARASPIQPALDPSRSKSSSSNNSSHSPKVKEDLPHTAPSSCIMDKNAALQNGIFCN

Row | Compound | CHRM2 (Agonist) percent activity (CHRM2 [1]) | MRGPRX2 (Agonist) percent activity (MRGPRX2 [2]) | maximum inhibition (antagonism) CHRM2 (CHRM2 [3]) | antagonist activity against EDG3 (in words) (EDG3 [4]) | EDG3 (Antagonist) percent inhibition (EDG3 [4]) | maximum inhibition (antagonism) EDG3 (EDG3 [5]) | antagonist activity against CHRM2 (in words) (CHRM2 [6]) | CHRM2 (Antagonist) percent inhibition (CHRM2 [6]) | maximum inhibition (antagonism) MRGPRX2 (MRGPRX2 [7]) | antagonist activity against MRGPRX2 (in words) (MRGPRX2 [8]) | MRGPRX2 (Antagonist) percent inhibition (MRGPRX2 [8]) | EDG3 (Agonist) percent activity (EDG3 [9]) | antagonism of CHRM2 (in words) (CHRM2 [3]) | antagonism of EDG3 (in words) (EDG3 [5]) | antagonism of MRGPRX2 (in words) (MRGPRX2 [7])
1 | CCCCCc1cc(O)c2c(c1)OC(C)(CCC=C(C)C)C=C2 (centres unmarked) [CBC, cannabichromene] | 12% | 9% | 85% | strong to moderate antagonist activity | 48% | 43% | strong to moderate antagonist activity | 89% | 91% | strong to moderate antagonist activity | 89% | −1% | – | – | –
2 | CCCCCc1cc2c(c(O)c1C(=O)O)C=CC(C)(CCC=C(C)C)O2 (centres unmarked) [CBCA, cannabichromenic acid] | −1% | 4% | – | do not exhibit an antagonistic effect | 32% | 25% | do not exhibit an antagonistic effect | 7% | 35% | do not exhibit an antagonistic effect; also recorded: antagonist activity | 49% | 1% | – | – | –
3 | C=C(C)[C@@H]1CCC(C)=C[C@H]1c1c(O)cc(CCCCC)cc1O [CBD, cannabidol] | 12% | 11% | 75% | – | 35% | 30% | antagonist activity | 81% | 96% | antagonist activity | 85% | 2% | – | – | –
4 | CCCCCc1cc(O)c(C/C=C(\C)CCC=C(C)C)c(O)c1 [CBG, cannabigerol] | 0% | 2% | 13% | – | 42% | 36% | – | 20% | 92% | antagonist activity | 96% | 8% | – | – | –
5 | CCCCCCCCCc1cc(O)c(C/C=C(\C)CCC=C(C)C)c(O)c1 [CBG-C9, cannabigerol nonyl] | – | – | 32% | – | – | 55% | – | – | 100% | – | – | – | – | – | –
6 | CCCCCCc1cc(O)c(C/C=C(\C)CCC=C(C)C)c(O)c1C(=O)O [CBGA-C6, cannabigerolic acid hexyl] | – | – | 6% | – | – | 33% | – | – | 13% | – | – | – | do not exhibit an antagonistic effect | do not exhibit an antagonistic effect | do not exhibit an antagonistic effect
7 | CCCCCCCc1cc(O)c(C/C=C(\C)CCC=C(C)C)c(O)c1C(=O)O [CBGA-C7, cannabigerolic acid heptyl] | – | – | 4% | – | – | 30% | – | – | 37% | – | – | – | do not exhibit an antagonistic effect | do not exhibit an antagonistic effect | do not exhibit an antagonistic effect
8 | CCCCCCCCCc1cc(O)c(C/C=C(\C)CCC=C(C)C)c(O)c1C(=O)O [CBGA-C9, cannabigerolic acid nonyl] | – | – | 11% | – | – | 58% | – | – | 56% | – | – | – | – | – | –
9 | (+)-cannabidiol [(+)-CBD] | 7% | 9% | 62% | strong to moderate antagonist activity | 55% | 24% | strong to moderate antagonist activity | 67% | 94% | strong to moderate antagonist activity | 92% | 21% | – | – | –
